US9302999B2, “Substituted triazoles as herbicides” (E. I. DU PONT DE NEMOURS AND COMPANY, priority 2012, dated 2016)

Tests used:
Type in all cases: in vivo
[1] = tested on: chamomile (scentless chamomile, Matricaria inodora); assay: Test D pre-/postemergence: chamomile; conditions: Postemergence; for Plant response rating, Chamomile: 16 g ai/ha, scale 0 to 100
From the text: (§1) Seeds of plant species selected from bluegrass (annual bluegrass, Poa annua), blackgrass (Alopecurus myosuroides), canarygrass (Phalaris minor), chickweed (common chickweed, Stellaria media), galium (catchweed bedstraw, Galium aparine), bromegrass, downy (downy bromegrass, Bromus tectorum), field poppy (Papaver rhoeas), field violet (Viola arvensis), foxtail, green (green foxtail, Setaria viridis), deadnettle (henbit deadnettle, Lamium amplexicaule), ryegrass, Italian (Italian ryegrass, Lolium multiflorum), kochia (Kochia scoparia), lambsquarters (Chenopodium album), oilseed rape (Brassica napus), pigweed (Amaranthus retroflexus), Russian thistle (Salsola iberica), chamomile (scentless chamomile, Matricaria inodora), speedwell (bird's-eye speedwell, Veronica persica), barley, spring (spring barley, Hordeum vulgare), wheat, spring (spring wheat, Triticum aestivum), buckwheat, wild (wild buckwheat, Polygonum convolvulus), mustard, wild (wild mustard, Sinapis arvensis), oat, wild (wild oat, Avena fatua), radish, wild (wild radish, Raphanus raphanistrum), windgrass (Apera spica-venti), barley, winter (winter barley, Hordeum vulgare), and wheat, winter (winter wheat, Triticum aestivum) were planted into a silt loam soil and treated preemergence with test chemicals formulated in a non-phytotoxic solvent mixture which included a surfactant. At the same time, these same crop and weed species were planted in pots containing the planting medium comprising spaghnum peat moss, vermiculite, wetting agent and starter nutrients and treated with postemergence applications of the test chemicals formulated in the same manner. Plants ranged in height from 2 to 18 cm (1- to 4-leaf stage).
(§2) Treated plants and controls were maintained in a controlled growth environment for 14 to 21 days after which time all species were compared to controls and visually evaluated. Plant response ratings, summarized in Table D, are based on a scale of 0 to 100 where 0 is no effect and 100 is complete control. A dash (-) response means no test result.

[2] = tested on: wheat, spring (spring wheat, Triticum aestivum); assay: Test D pre-/postemergence: wheat, spring
From the text: as §1, §2

[3] = tested on: field violet (Viola arvensis); assay: Test D pre-/postemergence: field violet
From the text: as §1, §2

[4] = tested on: oilseed rape (Brassica napus); assay: Test D pre-/postemergence: oilseed rape
From the text: as §1, §2

[5] = tested on: barley, winter (winter barley, Hordeum vulgare); assay: Test D pre-/postemergence: barley, winter
From the text: as §1, §2

[6] = 31 g ai/ha, scale 0 to 100 (0 no effect, 100 complete control)
[7] = 62 g ai/ha, scale 0 to 100 (0 no effect, 100 complete control)
[8] = 125 g ai/ha, scale 0 to 100, 0 no effect, 100 complete control
[9] = 250 g ai/ha, scale 0 to 100 (0 no effect, 100 complete control)
[10] = Postemergence, 31 g ai/ha, scale 0 to 100 (0 no effect, 100 complete control)
[11] = Postemergence, 62 g ai/ha, scale 0 to 100 (0 no effect, 100 complete control)
[12] = Postemergence, 125 g ai/ha, scale 0 to 100, 0 no effect, 100 complete control
[13] = Postemergence, 250 g ai/ha, scale 0 to 100 (0 no effect, 100 complete control)
[14] = Preemergence, 31 g ai/ha, scale 0 to 100, 0 no effect, 100 complete control
[15] = Preemergence, 62 g ai/ha, scale 0 to 100
[16] = Preemergence, 125 g ai/ha, scale 0 to 100
[17] = Preemergence, 250 g ai/ha, scale 0 to 100
[18] = Postemergence, 16 g ai/ha, scale 0 to 100

SMILES | Plant response rating: Chamomile [1, 6] | Plant response rating: Chamomile [1, 7] | Plant response rating: Chamomile [1, 8] | Plant response rating: Chamomile [1, 9] | Plant response rating: Wheat, Spring [2, 10] | Plant response rating: Wheat, Spring [2, 11] | Plant response rating: Wheat, Spring [2, 12] | Plant response rating: Wheat, Spring [2, 13] | Plant response rating: Field Violet [3, 10] | Plant response rating: Field Violet [3, 11] | Plant response rating: Field Violet [3, 12] | Plant response rating: Field Violet [3, 13] | Plant response rating: Oilseed Rape [4, 10] | Plant response rating: Oilseed Rape [4, 11] | Plant response rating: Oilseed Rape [4, 12] | Plant response rating: Oilseed Rape [4, 13] | Plant response rating: Barley, Winter [5, 10] | Plant response rating: Barley, Winter [5, 11] | Plant response rating: Barley, Winter [5, 12] | Plant response rating: Barley, Winter [5, 13] | also measured
FC(F)(F)COc1nn(-c2ccc(C(F)(F)F)cc2)nc1Cc1ccnc(C(F)(F)F)c1 [Compound 14, 4-[[5-(2,2,2-trifluoroethoxy)-2-[4-(trifluoromethyl)phenyl]-2H-1,2,3-triazol-4-yl]methyl]-2-(trifluoromethyl)pyridine] | 20 | 60 | 100 | 100 | 15 | 20 | 35 | 40 | 100 | 100 | 100 | 100 | 30 | 70 | 90 | 100 | 10 | 25 | 35 | 40 | Plant response rating, Wheat, Spring [2, 14]: 0; Plant response rating, Wheat, Spring [2, 15]: 0; Plant response rating, Wheat, Spring [2, 16]: 5; Plant response rating, Wheat, Spring [2, 17]: 15; Plant response rating, Field Violet [3, 14]: 75; Plant response rating, Field Violet [3, 15]: 90; Plant response rating, Field Violet [3, 16]: 95; Plant response rating, Field Violet [3, 17]: 95; Plant response rating, Oilseed Rape [4, 14]: 0; Plant response rating, Oilseed Rape [4, 15]: 0; Plant response rating, Oilseed Rape [4, 16]: 30; Plant response rating, Oilseed Rape [4, 17]: 40; Plant response rating, Barley, Winter [5, 14]: 0; Plant response rating, Barley, Winter [5, 15]: 0; Plant response rating, Barley, Winter [5, 16]: 10; Plant response rating, Barley, Winter [5, 17]: 35
COc1nn(-c2ccc(C(F)(F)F)cc2)nc1Cc1ccnc(C(F)(F)F)c1 [Compound 15, 4-[[5-methoxy-2-[4-(trifluoromethyl)phenyl]-2H-1,2,3-triazol-4-yl]methyl]-2-(trifluoromethyl)pyridine] | 0 | 0 | 25 | 100 | 25 | 30 | 40 | 50 | 100 | 100 | 100 | 100 | 100 | 70 | 100 | 100 | 10 | 15 | 20 | 40 | Plant response rating, Chamomile [1]: 0; Plant response rating, Wheat, Spring [2, 18]: 20; Plant response rating, Wheat, Spring [2, 14]: 0; Plant response rating, Wheat, Spring [2, 15]: 0; Plant response rating, Wheat, Spring [2, 16]: 0; Plant response rating, Wheat, Spring [2, 17]: 5; Plant response rating, Field Violet [3, 18]: 80; Plant response rating, Oilseed Rape [4, 18]: 70; Plant response rating, Oilseed Rape [4, 14]: 0; Plant response rating, Oilseed Rape [4, 15]: 10; Plant response rating, Oilseed Rape [4, 16]: 20; Plant response rating, Oilseed Rape [4, 17]: 75; Plant response rating, Barley, Winter [5, 18]: 10; Plant response rating, Barley, Winter [5, 14]: 0; Plant response rating, Barley, Winter [5, 15]: 5; Plant response rating, Barley, Winter [5, 16]: 20; Plant response rating, Barley, Winter [5, 17]: 30
Cc1nn(-c2ccc(C(F)(F)F)cn2)nc1Oc1ccnc(C(F)(F)F)c1 [Compound 23] | 0 | 0 | 0 | 5 | 5 | 10 | 10 | 15 | 40 | 50 | 70 | 80 | 50 | 75 | 85 | 95 | 0 | 10 | 10 | 20 | Plant response rating, Chamomile [1]: 0; Plant response rating, Wheat, Spring [2, 18]: 0; Plant response rating, Field Violet [3, 18]: 20; Plant response rating, Oilseed Rape [4, 18]: 50; Plant response rating, Barley, Winter [5, 18]: 0
Cc1nn(-c2ccc(C(F)(F)F)cn2)nc1Cc1cccc(C(F)(F)F)c1 [Compound 106] | 0 | 0 | 0 | 25 | 5 | 5 | 10 | 20 | 70 | 70 | 85 | 100 | 10 | 10 | 80 | 95 | 5 | 5 | 5 | 10 | Plant response rating, Chamomile [1]: 0; Plant response rating, Wheat, Spring [2, 18]: 0; Plant response rating, Wheat, Spring [2, 14]: 0; Plant response rating, Wheat, Spring [2, 15]: 0; Plant response rating, Wheat, Spring [2, 16]: 0; Plant response rating, Wheat, Spring [2, 17]: 0; Plant response rating, Field Violet [3, 18]: 70; Plant response rating, Oilseed Rape [4, 18]: 10; Plant response rating, Oilseed Rape [4, 14]: 10; Plant response rating, Oilseed Rape [4, 15]: 10; Plant response rating, Oilseed Rape [4, 16]: 10; Plant response rating, Oilseed Rape [4, 17]: 20; Plant response rating, Barley, Winter [5, 18]: 0; Plant response rating, Barley, Winter [5, 14]: 0; Plant response rating, Barley, Winter [5, 15]: 0; Plant response rating, Barley, Winter [5, 16]: 0; Plant response rating, Barley, Winter [5, 17]: 20
